Laboratory results taken from the RepoRT retention time repository.
Where a name gives a salt, the structure may show the parent alone.

Assay: RP, Thermo Scientific Hypersil GOLD, 1.9 µm, 40 °C, 0.4 mL/min; A: water + 0.1% formic acid, pH 3; B: acetonitrile + 0.1% formic acid, pH 3; gradient (min/%B) 0/0 1/0 11/100 13/100 14/0 16/0
Details: stereoisomer not certain

Row | SMILES | LC retention time [min]
1 | NC1C(O)OC(COS(=O)(=O)O)C(O)C1O (configuration not stated) [GLUCOSAMINE 6-SULFATE] | 0.62
2 | O=CC(O)CO (configuration not stated) [GLYCERALDEHYDE] | 0.64
3 | O=P(O)(O)OCC(O)CO (configuration not stated) [GLYCEROL 3-PHOSPHATE] | 0.67
4 | CCCCCCCCCCCCCC(=O)OCC(O)CO (configuration not stated) [GLYCEROL-MYRISTATE] | 11.2
5 | OCC(O)CO [GLYCEROL] | 0.68
6 | NC(N)=NCC(=O)O [GUANIDINOACETATE] | 0.62
7 | NC(N)=NC(CC(=O)O)C(=O)O (configuration not stated) [GUANIDINOSUCCINATE] | 0.67
8 | Nc1nc2nc[nH]c2c(=O)[nH]1 [GUANINE] | 0.78
9 | Nc1nc2c(ncn2C2OC(COP(=O)(O)OP(=O)(O)OC3OC(CO)C(O)C(O)C3O)C(O)C2O)c(=O)[nH]1 (configuration not stated) [GUANOSINE DIPHOSPHATE MANNOSE] | 4.1
10 | Nc1nc2c(ncn2C2OC(COP(=O)(O)O)C(O)C2O)c(=O)[nH]1 (configuration not stated) [GUANOSINE MONOPHOSPHATE] | 0.81
11 | Nc1nc2c(ncn2C2OC(CO)C(O)C2O)c(=O)[nH]1 (configuration not stated) [GUANOSINE] | 1.26
12 | NCC(=O)NCC(=O)O [Gly-Gly] | 0.62
13 | [NH3+]CC(=O)N1CCCC1C(=O)[O-] (configuration not stated) [Gly-Pro] | 0.82
14 | CCCCCCCCCCCCCCCCC(=O)O [HEPTADECANOATE] | 12.7
15 | O=C(O)CNC(=O)c1ccccc1 [HIPPURATE] | 4.92
16 | NC(CO)Cc1cnc[nH]1 (configuration not stated) [HISTIDINOL] | 0.54
17 | NC1CCSC1=O (configuration not stated) [HOMOCYSTEINE THIOLACTONE] | 0.72
18 | NC(CCS)C(=O)O (configuration not stated) [HOMOCYSTEINE] | 0.72
19 | NC(CCSSCCC(N)C(=O)O)C(=O)O (configuration not stated) [HOMOCYSTINE] | 0.72
20 | NC(CCO)C(=O)O (configuration not stated) [HOMOSERINE] | 0.62
21 | COc1cc(CC(=O)O)ccc1O [HOMOVANILLATE] | 5.13
22 | Nc1c(O)cccc1C(=O)CC(N)C(=O)O (configuration not stated) [HYDROXYKYNURENINE] | 0.88

Row | SMILES | LC retention time [min]
23 | O=C(O)C(O)Cc1ccc(O)cc1 (configuration not stated) [HYDROXYPHENYLLACTATE] | 4.38
24 | NCCS(=O)O [HYPOTAURINE] | 0.63
25 | O=c1[nH]cnc2nc[nH]c12 [HYPOXANTHINE] | 0.83
26 | CCCCCC(=O)OC(CC(=O)[O-])C[N+](C)(C)C [Hexanoyl-L-carnitine] | 5.67
27 | NC(=O)Cc1c[nH]c2ccccc12 [INDOLE-3-ACETAMIDE] | 5.37
28 | OCCc1c[nH]c2ccccc12 [INDOLE-3-ETHANOL] | 6.28
29 | COC(=O)Cc1c[nH]c2ccccc12 [INDOLE-3-METHYL ACETATE] | 7.44
30 | O=C(O)C(=O)Cc1c[nH]c2ccccc12 [INDOLE-3-PYRUVATE] | 6
31 | O=CCc1c[nH]c2ccccc12 [INDOLEACETALDEHYDE] | 4.34
32 | O=S(=O)(O)Oc1c[nH]c2ccccc12 [INDOXYL SULFATE] | 4.77
33 | O=c1[nH]cnc2c1ncn2C1OC(CO)C(O)C1O (configuration not stated) [INOSINE] | 1.53
34 | O=C(O)CC(C(=O)O)C(O)C(=O)O (configuration not stated) [ISOCITRATE] | 2.37
35 | CCC(C)C(N)C(=O)O (configuration not stated) [ISOLEUCINE] | 1.48
36 | C=C(CC(=O)O)C(=O)O [ITACONATE] | 3.2
37 | Cc1cc(=O)oc(C)c1C(=O)O [Isodehydracetic acid] | 4.13
38 | O=C(O)c1cc[n+]([O-])cc1 [Isonicotinic acid N-oxide] | 0.81
39 | CC(C)CC(=O)NCC(=O)O [Isovaleroylglycine] | 4.6
40 | CC(C)CC(=O)OC(CC(=O)[O-])C[N+](C)(C)C [Isovaleryl-L-carnitine] | 4.92
41 | Nc1ccccc1C(=O)CC(N)C(=O)O (configuration not stated) [KYNURENINE] | 3.31
42 | CS(=N)(=O)CCC(N)C(=O)O (configuration not stated) [METHIONINE SULFOXIMINE] | 0.62
43 | CNCCc1c[nH]c2ccccc12 [N-METHYLTRYPTAMINE] | 4.93
44 | CN(C)c1ccc(N)cc1 [N-N-DIMETHYL-1-4-PHENYLENEDIAMINE] | 0.83

More lines, now with the values ahead:

Row | LC retention time [min] | SMILES
45 | 4.67 | O=C(O)c1cc(=O)c2ccccc2[nH]1 [Kynurenic acid]
46 | 0.62 | NC(=O)C[C@H](N)C(=O)O [L-Asparagine]
47 | 0.66 | O=C1OC(C(O)CO)C(O)C1O [L-GULONOLACTONE]
48 | 0.65 | N[C@@H](CCC(=O)O)C(=O)O [L-Glutamic acid]
49 | 0.62 | NC(=O)CC[C@H](N)C(=O)O [L-Glutamine]
50 | 4.1 | NC(=O)[C@@H](N)Cc1c[nH]c2ccccc12 [L-TRYPTOPHANAMIDE]
51 | 8.63 | CCCCCCCCCCCC(=O)OC(CC(=O)[O-])C[N+](C)(C)C (configuration not stated) [LAUROYLCARNITINE]
52 | 6.99 | NC(Cc1cc(I)c(Oc2ccc(O)c(I)c2)c(I)c1)C(=O)O (configuration not stated) [LIOTHYRONINE]
53 | 6.53 | NC(=O)CCCCC1CCSS1 (configuration not stated) [LIPOAMIDE]
54 | 10.5 | CC(CCC(=O)O)C1CCC2C3CCC4CC(O)CCC4(C)C3CCC12C (configuration not stated) [LITHOCHOLATE]
55 | 8.73 | CC(CCC(=O)NCCS(=O)(=O)O)C1CCC2C3CCC4CC(O)CCC4(C)C3CCC12C (configuration not stated) [LITHOCHOLYLTAURINE]
56 | 0.6 | NC(CCCC(N)C(=O)O)C(=O)O (configuration not stated) [LL-2-6-DIAMINOHEPTANEDIOATE]
57 | 6.03 | Cc1cc2nc3[nH]c(=O)[nH]c(=O)c3nc2cc1C [LUMICHROME]
58 | 0.82 | NC(=O)C=CC(=O)O [MALEAMATE]
59 | 0.88 | O=C([O-])C=CC(=O)[O-] [MALEATE]
60 | 0.84 | O=C1C=CC(=O)N1 [MALEIMIDE]
61 | 0.83 | O=C(O)CC(=O)O [MALONATE]
62 | 4.72 | O=C([O-])C(O)c1ccccc1 (configuration not stated) [MANDELATE]
63 | 6.09 | COc1ccc2[nH]cc(CCNC(C)=O)c2c1 [MELATONIN]
64 | 0.63 | OCC1OC(OCC2OC(O)C(O)C(O)C2O)C(O)C(O)C1O (configuration not stated) [MELIBIOSE]

Row | LC retention time [min] | SMILES
65 | 0.89 | O=C(O)C(=O)CS [MERCAPTOPYRUVATE]
66 | 0.71 | O=C([O-])C(O)C(O)C(=O)[O-] (stereo not drawn) [MESO-TARTRATE]
67 | 2.05 | O=C(O)C(=O)C(=O)O [MESOXALATE]
68 | 0.74 | COC1OC(CO)C(O)C(O)C1O (configuration not stated) [METHYL GALACTOSIDE]
69 | 6.4 | COC(=O)c1ccc(O)c(OC)c1 [METHYL VANILLATE]
70 | 4.41 | CSCC1OC(n2cnc3c(N)ncnc32)C(O)C1O (configuration not stated) [METHYLTHIOADENOSINE]
71 | 0.55 | CC(O)(CCO)CC(=O)[O-] (configuration not stated) [MEVALONATE]
72 | 0.61 | OC1C(O)C(O)C(O)C(O)C1O (configuration not stated) [MYOINOSITOL]
73 | 0.61 | OCC1OC(OC2C(CO)OC(OC3C(CO)OC(O)C(O)C3O)C(O)C2O)C(O)C(O)C1O (configuration not stated) [Maltotriose]
74 | 3.66 | CC(CC(=O)O)C(=O)O (configuration not stated) [Methyl-succinic acid]
75 | 6.29 | O=c1c(O)c(-c2ccc(O)cc2O)oc2cc(O)cc(O)c12 [Morin hydrate]
76 | 0.5 | CC(=O)NCCCNCCCCNCCCN [N1-ACETYLSPERMINE]
77 | 5.26 | CC(C)=CCNc1ncnc2nc[nH]c12 [N6-(DELTA2-ISOPENTENYL)-ADENINE]
78 | 1.24 | CC(=O)NC(C)C(=O)O (configuration not stated) [N-ACETYLALANINE]
79 | 0.83 | CC(=O)NC(CC(=O)O)C(=O)O (configuration not stated) [N-ACETYLASPARTATE]
80 | 1.9 | CC(=O)NC(CS)C(=O)O (configuration not stated) [N-ACETYLCYSTEINE]
81 | 0.93 | CC(=O)NC(CCC(=O)O)C(=O)O (configuration not stated) [N-ACETYLGLUTAMATE]
82 | 0.83 | CC(=O)NCC(=O)O [N-ACETYLGLYCINE]
83 | 5.47 | CC(=O)NC(CC(C)C)C(=O)O (configuration not stated) [N-ACETYLLEUCINE]
84 | 4.61 | CSCCC(NC(C)=O)C(=O)O (configuration not stated) [N-ACETYLMETHIONINE]

Row | LC retention time [min] | SMILES
85 | 5.73 | CC(=O)NC(Cc1ccccc1)C(=O)O (configuration not stated) [N-ACETYLPHENYLALANINE]
86 | 0.71 | CC(=O)NCCCCN [N-ACETYLPUTRESCINE]
87 | 0.78 | CC(=O)NC(CO)C(=O)O (configuration not stated) [N-ACETYLSERINE]
88 | 4.86 | CC(=O)NCCc1c[nH]c2ccc(O)cc12 [N-ACETYLSEROTONIN]
89 | 5.83 | CC(=O)NC(Cc1c[nH]c2ccccc12)C(=O)O (configuration not stated) [N-ACETYLTRYPTOPHAN]
90 | 0.72 | CC(=O)NC(CCCC[NH3+])C(=O)[O-] (stereo not drawn) [N-ALPHA-ACETYLLYSINE]
91 | 10.8 | CCCCCCCCCCCCCC=CC(O)C(CO)NC(C)=O [N-Acetyl-D-sphingosine]
92 | 4.56 | CC(=O)N[C@@H](Cc1ccc(O)cc1)C(=O)O [N-Acetyl-L-tyrosine]
93 | 4.28 | CSCC[C@H](NC=O)C(=O)O [N-FORMYL-L-METHIONINE]
94 | 0.74 | O=CNCC(=O)O [N-FORMYLGLYCINE]
95 | 0.63 | CNC(CC(=O)O)C(=O)O (configuration not stated) [N-METHYLASPARTATE]
96 | 0.66 | CNC(CCC(=O)O)C(=O)O (configuration not stated) [N-METHYLGLUTAMATE]
97 | 0.59 | C[N+](C)(C)CCCCC(N)C(=O)[O-] (configuration not stated) [N-N-N-TRIMETHYLLYSINE]
98 | 0.63 | CN(C)CC(=O)O [N-N-dimethylglycine]
99 | 8.5 | c1ccc(CNc2ccccc2)cc1 [N-benzylaniline]
100 | 1.6 | Cn1cc(C(N)=O)ccc1=O [N-methyl-2-pyridone-5-carboxamide]
101 | 4.21 | NC(=O)c1ccc[n+](C2OC(COP(=O)(O)OP(=O)(O)OCC3OC(n4cnc5c(N)ncnc54)C(OP(=O)(O)O)C3O)C(O)C2O)c1 (configuration not stated) [NADP]
102 | 14 | CCCCCCCCC=CCCCCCCCCCCCCCC(=O)[O-] [NERVONATE]
